This passage reports IC50 results from US12209087B2, “AKT1 modulators” (Alterome Therapeutics, Inc., priority 2022, dated 2025).

Structures are written as SMILES. A value given as a limit tells only on which side of the number the result lay.

The target in this experiment is T1, full length AKT E17K (Homo sapiens, UniProt P31749, E17K).
T1 construct: host or cells: HEK-293 (ATCC CRL-1573)
T1 sequence (P31749 whole entry E17K): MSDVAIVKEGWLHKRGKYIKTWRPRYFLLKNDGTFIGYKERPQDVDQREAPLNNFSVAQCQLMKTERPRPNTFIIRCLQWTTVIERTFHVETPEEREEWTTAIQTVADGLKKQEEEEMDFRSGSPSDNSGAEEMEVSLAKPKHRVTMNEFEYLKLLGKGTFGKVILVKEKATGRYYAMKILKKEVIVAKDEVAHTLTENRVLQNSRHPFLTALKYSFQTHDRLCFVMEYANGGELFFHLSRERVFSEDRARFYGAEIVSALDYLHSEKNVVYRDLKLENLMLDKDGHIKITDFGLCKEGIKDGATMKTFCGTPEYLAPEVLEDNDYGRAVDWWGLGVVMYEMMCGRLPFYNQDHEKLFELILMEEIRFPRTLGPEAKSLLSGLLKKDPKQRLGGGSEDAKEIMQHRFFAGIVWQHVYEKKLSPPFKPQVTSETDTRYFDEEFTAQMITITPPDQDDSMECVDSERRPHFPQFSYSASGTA
The experiment can be described thus: NanoBRET Target Engagement (TE) Assay. Format: cell-based. The conditions noted are these: competitive displacement of tracer in cells, read-out: AKT1 E17K IC50. In outline:
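Compound and tracer incubated 2 h before luminescence at donor 450 nm and acceptor 600 nm, with extracellular signal inhibited. EC50 by sigmoidal variable-slope regression.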
As for `C#Cc1ccc2nc(-c3cccnc3N)n(-c3ccc(CN4CCC(Nc5ccnc(C#N)n5)CC4)cc3)c2n1` [Example 513, 4-((1-(4-(2-(2-Aminopyridin-3-yl)-5-ethynyl-3H-imidazo[4,5-b]pyridin-3-yl)benzyl)piperidin-4-yl)amino)pyrimidine-2-carbonitrile], the IC50 was less than 15 nM.

`CC(=O)N(C)c1cccc(-c2ccc3nc(-c4cccnc4N)n(-c4ccc(CN5CCC(Nc6ccnc(C#N)n6)CC5)cc4)c3n2)c1` [Example 514, N-(3-(2-(2-Aminopyridin-3-yl)-3-(4-((4-((2-cyanopyrimidin-4-yl)amino)piperidin-1-yl)methyl)phenyl)-3H-imidazo[4,5-b]pyridin-5-yl)phenyl)-N-methylacetamide]: the IC50 is less than 15 nM.

With `COc1cnccc1-c1ccc2nc(-c3cccnc3N)n(-c3ccc(CN4CCC(Nc5ccnc(C#N)n5)CC4)cc3)c2n1` [Example 515, 4-((1-(4-(2-(2-Aminopyridin-3-yl)-5-(3-methoxypyridin-4-yl)-3H-imidazo[4,5-b]pyridin-3-yl)benzyl)piperidin-4-yl)amino)pyrimidine-2-carbonitrile], the half-inhibitory concentration (IC50) was less than 15 nM.

`COc1ccc(-c2ccc3nc(-c4cccnc4N)n(-c4ccc(CN5CCC(Nc6ccnc(C#N)n6)CC5)cc4)c3n2)cn1` [Example 516, 4-((1-(4-(2-(2-Aminopyridin-3-yl)-5-(6-methoxypyridin-3-yl)-3H-imidazo[4,5-b]pyridin-3-yl)benzyl)piperidin-4-yl)amino)pyrimidine-2-carbonitrile]: the IC50 is less than 15 nM.

For `N#Cc1nccc(NC2CCN(Cc3ccc(-n4c(-c5cccnc5N)nc5ccc(-c6cccc(N)c6)nc54)cc3)CC2)n1` [Example 517, 4-((1-(4-(5-(3-Aminophenyl)-2-(2-aminopyridin-3-yl)-3H-imidazo[4,5-b]pyridin-3-yl)benzyl)piperidin-4-yl)amino)pyrimidine-2-carbonitrile], the IC50 is less than 15 nM.

For `CC(C)C(=O)Nc1cccc(-c2ccc3nc(-c4cccnc4N)n(-c4ccc(CN5CCC(Nc6ccnc(C#N)n6)CC5)cc4)c3n2)c1` [Example 518, N-(3-(2-(2-Aminopyridin-3-yl)-3-(4-((4-((2-cyanopyrimidin-4-yl)amino)piperidin-1-yl)methyl)phenyl)-3H-imidazo[4,5-b]pyridin-5-yl)phenyl)isobutyramide], the IC50 is less than 15 nM.

Take `CC(C)C(=O)Nc1cccc(-c2ccc3nc(-c4cccnc4NC(=O)C(C)C)n(-c4ccc(CN5CCC(Nc6ccnc(C#N)n6)CC5)cc4)c3n2)c1` [Example 519, N-(3-(3-(4-((4-((2-cyanopyrimidin-4-yl)amino)piperidin-1-yl)methyl)phenyl)-2-(2-isobutyramidopyridin-3-yl)-3H-imidazo[4,5-b]pyridin-5-yl)phenyl)isobutyramide]: the half-inhibitory concentration (IC50) was in the range of 15 to 60 nM.

For the compound `COC(=O)Nc1cccc(-c2ccc3nc(-c4cccnc4N)n(-c4ccc(CN5CCC(Nc6ccnc(C#N)n6)CC5)cc4)c3n2)c1` [Example 520, Methyl (3-(2-(2-aminopyridin-3-yl)-3-(4-((4-((2-cyanopyrimidin-4-yl)amino)piperidin-1-yl)methyl)phenyl)-3H-imidazo[4,5-b]pyridin-5-yl)phenyl)carbamate], the 50% inhibitory concentration (IC50) is less than 15 nM.

As for `CN(C)c1cccc(-c2ccc3nc(-c4cccnc4N)n(-c4ccc(CN5CCC(Nc6ccnc(C#N)n6)CC5)cc4)c3n2)c1` [Example 521, 4-((1-(4-(2-(2-Aminopyridin-3-yl)-5-(3-(dimethylamino)phenyl)-3H-imidazo[4,5-b]pyridin-3-yl)benzyl)piperidin-4-yl)amino)pyrimidine-2-carbonitrile], the IC50 is less than 15 nM.

As to `CC(=O)N(C)C1CCN(c2cccc(-c3ccc4nc(-c5cccnc5N)n(-c5ccc(CN6CCC(Nc7ccnc(C#N)n7)CC6)cc5)c4n3)c2)CC1` [Example 522, N-(1-(3-(2-(2-Aminopyridin-3-yl)-3-(4-((4-((2-cyanopyrimidin-4-yl)amino)piperidin-1-yl)methyl)phenyl)-3H-imidazo[4,5-b]pyridin-5-yl)phenyl)piperidin-4-yl)-N-methylacetamide], the IC50 is 15 to 60 nM.

As to `Cc1cc(F)ccc1-c1ccc2nc(-c3cccnc3N)n(-c3ccc(CN4CCC(Nc5ccnc(C#N)n5)CC4)cc3)c2n1` [Example 523, 4-((1-(4-(2-(2-Aminopyridin-3-yl)-5-(4-fluoro-2-methylphenyl)-3H-imidazo[4,5-b]pyridin-3-yl)benzyl)piperidin-4-yl)amino)pyrimidine-2-carbonitrile], the IC50 was 15 to 60 nM.

As for `N#Cc1nccc(NC2CCN(Cc3ccc(-n4c(-c5cccnc5N)nc5ccc(-c6ccc(F)cc6C(N)=O)nc54)cc3)CC2)n1` [Example 524, 2-(2-(2-aminopyridin-3-yl)-3-(4-((4-((2-cyanopyrimidin-4-yl)amino)piperidin-1-yl)methyl)phenyl)-3H-imidazo[4,5-b]pyridin-5-yl)-5-fluorobenzamide], the IC50 was in the range of 600 to 10000 nM.

`N#Cc1nccc(NC2CCN(Cc3ccc(-n4c(-c5cccnc5N)nc5ccc(-c6ccc(F)cc6C#N)nc54)cc3)CC2)n1` [Example 525, 4-((1-(4-(2-(2-Aminopyridin-3-yl)-5-(2-cyano-4-fluorophenyl)-3H-imidazo[4,5-b]pyridin-3-yl)benzyl)piperidin-4-yl)amino)pyrimidine-2-carbonitrile]: the IC50 was 15 to 60 nM.

Take `N#Cc1nccc(NC2CCN(Cc3ccc(-n4c(-c5cccnc5N)nc5ccc(-c6ccc(F)cc6C(F)(F)F)nc54)cc3)CC2)n1` [Example 526, 4-((1-(4-(2-(2-Aminopyridin-3-yl)-5-(4-fluoro-2-(trifluoromethyl)phenyl)-3H-imidazo[4,5-b]pyridin-3-yl)benzyl)piperidin-4-yl)amino)pyrimidine-2-carbonitrile]: the IC50 is 600 to 10000 nM.

Consider `Cc1ccccc1-c1ccc2nc(-c3cccnc3N)n(-c3ccc(CN4CCC(Nc5ccnc(C#N)n5)CC4)cc3)c2n1` [Example 527, 4-((1-(4-(2-(2-Aminopyridin-3-yl)-5-(o-tolyl)-3H-imidazo[4,5-b]pyridin-3-yl)benzyl)piperidin-4-yl)amino)pyrimidine-2-carbonitrile], for which the half-maximal inhibitory concentration (IC50) was less than 15 nM.

Regarding `Cc1cccc(-c2ccc3nc(-c4cccnc4N)n(-c4ccc(CN5CCC(Nc6ccnc(C#N)n6)CC5)cc4)c3n2)c1` [Example 528, 4-((1-(4-(2-(2-Aminopyridin-3-yl)-5-(m-tolyl)-3H-imidazo[4,5-b]pyridin-3-yl)benzyl)piperidin-4-yl)amino)pyrimidine-2-carbonitrile], the IC50 is less than 15 nM.

Consider `Cc1ccc(-c2ccc3nc(-c4cccnc4N)n(-c4ccc(CN5CCC(Nc6ccnc(C#N)n6)CC5)cc4)c3n2)cc1` [Example 529, 4-((1-(4-(2-(2-Aminopyridin-3-yl)-5-(p-tolyl)-3H-imidazo[4,5-b]pyridin-3-yl)benzyl)piperidin-4-yl)amino)pyrimidine-2-carbonitrile], for which the IC50 was less than 15 nM.

As for `N#Cc1nccc(NC2CCN(Cc3ccc(-n4c(-c5cccnc5N)nc5ccc(-c6cccc(C(F)(F)F)c6)nc54)cc3)CC2)n1` [Example 530, 4-((1-(4-(2-(2-Aminopyridin-3-yl)-5-(3-(trifluoromethyl)phenyl)-3H-imidazo[4,5-b]pyridin-3-yl)benzyl)piperidin-4-yl)amino)pyrimidine-2-carbonitrile], the half-inhibitory concentration (IC50) lay in the range of 15 to 60 nM.

As to `CC(C)OC(=O)c1ccc2nc(-c3cccnc3N)n(-c3ccc(CN4CCC(Nc5ccnc(C#N)n5)CC4)cc3)c2n1` [Example 531, Isopropyl 2-(2-aminopyridin-3-yl)-3-(4-((4-((2-cyanopyrimidin-4-yl)amino)piperidin-1-yl)methyl)phenyl)-3H-imidazo[4,5-b]pyridine-5-carboxylate], the IC50 is less than 15 nM.

As for `N#Cc1nccc(NC2CCN(Cc3ccc(-n4c(-c5cccnc5N)nc5ccccc54)cc3)CC2)n1` [Example 532, 4-((1-(4-(2-(2-Aminopyridin-3-yl)-1H-benzo[d]imidazol-1-yl)benzyl)piperidin-4-yl)amino)pyrimidine-2-carbonitrile], the 50% inhibitory concentration (IC50) fell in the range of 60 to 600 nM.

`N#Cc1nccc(NC2CCN(Cc3ccc(-n4c(-c5cccnc5N)nc5ncccc54)cc3)CC2)n1` [Example 533, 4-((1-(4-(2-(2-Aminopyridin-3-yl)-1H-imidazo[4,5-b]pyridin-1-yl)benzyl)piperidin-4-yl)amino)pyrimidine-2-carbonitrile]: the 50% inhibitory concentration (IC50) is 60 to 600 nM.

As to `Cc1ccc(-c2ccc3nc(-c4cccnc4N)n(-c4ccc(CN5CCC(Nc6ccnc(C#N)n6)CC5)cc4)c3n2)cn1` [Example 534, 4-((1-(4-(2-(2-Aminopyridin-3-yl)-5-(6-methylpyridin-3-yl)-3H-imidazo[4,5-b]pyridin-3-yl)benzyl)piperidin-4-yl)amino)pyrimidine-2-carbonitrile], the IC50 was less than 15 nM.

As for `N#Cc1nccc(NC2CCN(Cc3ccc(-n4c(-c5cccnc5N)nc5ccc(OC(F)F)nc54)cc3)CC2)n1` [Example 535, 4-((1-(4-(2-(2-Aminopyridin-3-yl)-5-(difluoromethoxy)-3H-imidazo[4,5-b]pyridin-3-yl)benzyl)piperidin-4-yl)amino)pyrimidine-2-carbonitrile], the concentration for half-maximal inhibition (IC50) was less than 15 nM.

Consider `COc1ccncc1-c1ccc2nc(-c3cccnc3N)n(-c3ccc(CN4CCC(Nc5ccnc(C#N)n5)CC4)cc3)c2n1` [Example 536, 4-((1-(4-(2-(2-Aminopyridin-3-yl)-5-(4-methoxypyridin-3-yl)-3H-imidazo[4,5-b]pyridin-3-yl)benzyl)piperidin-4-yl)amino)pyrimidine-2-carbonitrile], for which the half-inhibitory concentration (IC50) is less than 15 nM.

In the case of `COc1ncccc1-c1ccc2nc(-c3cccnc3N)n(-c3ccc(CN4CCC(Nc5ccnc(C#N)n5)CC4)cc3)c2n1` [Example 537, 4-((1-(4-(2-(2-Aminopyridin-3-yl)-5-(2-methoxypyridin-3-yl)-3H-imidazo[4,5-b]pyridin-3-yl)benzyl)piperidin-4-yl)amino)pyrimidine-2-carbonitrile], the IC50 is less than 15 nM.
